Measurements: PubChem BioAssay AID316 (DTP/NCI, 2004)
Where “and” joins values, the source holds several entries; their conditions need not be identical. Equal entries are not always repeated. Toxic doses and inconclusive results are not listed. How the source made its calls: active means survival T/C of 150% or more; inactive means T/C below 125% in these data.

Test system: P1534 leukemia ip, CD2F1 mice, survival T/C
Test: NCI In Vivo Anticancer Drug Screen. Data for tumor model P1534 Leukemia (intraperitoneal) in CD2F1 (CDF1) mice
Conditions: endpoint: mean survival time, higher = longer survival
Protocol: The antitumor activity of compounds was measured in mice bearing transplantable tumors. Survival or tumor size were measured and the results are expressed as the measurement made in the treated group (T) divided by the measurement made in the vehicle treated control group (C). The tumor model used in this assay is P1534 Leukemia (intraperitoneal) in CD2F1 (CDF1) mice

[1] = dose: 25.0 mg/kg/injection, schedule: Q01DX010 (ip), vehicle: saline
[2] = dose: 50.0 mg/kg/injection, schedule: Q01DX010 (ip), vehicle: saline
[3] = dose: 100.0 mg/kg/injection, schedule: Q01DX010 (ip), vehicle: saline
[4] = dose: 200.0 mg/kg/injection, schedule: Q01DX010 (ip), vehicle: saline
[5] = dose: 12.5 mg/kg/injection, schedule: Q01DX010 (ip), vehicle: saline
[6] = dose: 100.0 mg/kg/injection, schedule: Q01DX010 (ip), vehicle: water
[7] = dose: 200.0 mg/kg/injection, schedule: Q01DX010 (ip), vehicle: water
[8] = dose: 125.0 mg/kg/injection, schedule: Q01DX010 (ip), vehicle: saline
[9] = dose: 250.0 mg/kg/injection, schedule: Q01DX010 (ip), vehicle: saline
[10] = dose: 500.0 mg/kg/injection, schedule: Q01DX010 (ip), vehicle: saline
[11] = dose: 1000.0 mg/kg/injection, schedule: Q01DX010 (ip), vehicle: saline
[12] = dose: 400.0 mg/kg/injection, schedule: Q01DX010 (ip), vehicle: saline
[13] = dose: 80.0 mg/kg/injection, schedule: Q01DX010 (ip), vehicle: saline

Measured: T/C

C/C=C1/CN(C)C2Cc3c([nH]c4ccccc34)C(c3cc4[nH]c5c(c4cc3OC)CCN3CC4CC(C(C)O)C3C5(C(=O)OC)C4)CC1C2C(=O)OC (centres undefined)
inactive: dose: 5.0 mg/kg/injection, schedule: Q01DX010 (ip), vehicle: water 98 % of control | dose: 10.0 mg/kg/injection, schedule: Q01DX010 (ip), vehicle: other 103 % of control | dose: 10.0 mg/kg/injection, schedule: Q01DX010 (ip), vehicle: water 96 % of control | dose: 15.0 mg/kg/injection, schedule: Q01DX010 (ip), vehicle: water 94 % of control | dose: 20.0 mg/kg/injection, schedule: Q01DX010 (ip), vehicle: other 92 % of control | dose: 20.0 mg/kg/injection, schedule: Q01DX010 (ip), vehicle: water 107 % of control | dose: 30.0 mg/kg/injection, schedule: Q01DX010 (ip), vehicle: other 94 % of control | dose: 40.0 mg/kg/injection, schedule: Q01DX010 (ip), vehicle: other 92 % of control

O=C(NCCCCC(NC(=O)c1ccccc1)C(=O)NCCCCCCNCCCCCCNC(=O)C(CCCCNC(=O)c1ccccc1)NC(=O)c1ccccc1)c1ccccc1 (centres undefined)
inactive: [1] 100 % of control | [2] 110 % of control | [3] 100 % of control | [4] 106 % of control

COc1ccc2cc3[n+](cc2c1OC)CCc1cc2c(cc1-3)OCO2
inactive: dose: 1.56 mg/kg/injection, schedule: Q01DX010 (ip), vehicle: saline 106 % of control | dose: 3.13 mg/kg/injection, schedule: Q01DX010 (ip), vehicle: saline 106 % of control | dose: 6.25 mg/kg/injection, schedule: Q01DX010 (ip), vehicle: saline 110 % of control | [5] 123 % of control

[N-]=[N+]=CC(=O)NCC(=O)NN
inactive: [6] 103 % of control | [7] 120 % of control | dose: 300.0 mg/kg/injection, schedule: Q01DX010 (ip), vehicle: water 123 % of control

CC(=O)NNC(=O)c1ccccn1
inactive: dose: 110.0 mg/kg/injection, schedule: Q01DX010 (ip), vehicle: water 100 % of control | dose: 120.0 mg/kg/injection, schedule: Q01DX010 (ip), vehicle: water 107 % of control | dose: 140.0 mg/kg/injection, schedule: Q01DX010 (ip), vehicle: water 98 % of control | dose: 160.0 mg/kg/injection, schedule: Q01DX010 (ip), vehicle: water 112 % of control

CC(C)=CCN=C(N)N
inactive: [5] 103 % of control | [1] 106 % of control

CCOC(N)=O
inactive: [8] 100 % of control | [9] 112 % of control and 100 % of control | [10] 112 % of control and 100 % of control | [11] 88 % of control and 93 % of control

NCC(=O)NCCCCCCNCCCCCCNC(=O)CN
inactive: [2] 100 % of control | [3] 100 % of control | [4] 100 % of control | [12] 100 % of control

COc1ccc2c(c1OC)C(=O)O[C@@H]2[C@H]1c2c(cc3c(c2OC)OCO3)CCN1C
inactive: dose: 31.3 mg/kg/injection, schedule: Q01DX010 (ip), vehicle: saline 103 % of control | dose: 62.5 mg/kg/injection, schedule: Q01DX010 (ip), vehicle: saline 92 % of control and 100 % of control | [8] 100 % of control | [9] 100 % of control

CN(C)c1ccc(Nc2c3ccccc3nc3ccccc23)cc1
inactive: dose: 36.0 mg/kg/injection, schedule: Q01DX010 (ip), vehicle: saline 121 % of control | [13] 92 % of control

O=c1[nH]cnc2ccccc12
inactive: [1] 107 % of control | [2] 100 % of control | [3] 103 % of control | [4] 114 % of control

CCN(CC)C(=S)S
inactive: [8] 100 % of control | [9] 100 % of control | [10] 103 % of control | [11] 107 % of control

NC(=O)c1cn[nH]c1N
inactive: [6] 100 % of control | [7] 93 % of control

COc1ccc2c(c1OC)CN1CCc3cc4c(cc3C1C2)OCO4 (centres undefined)
inactive: [2] 107 % of control | [3] 92 % of control | [4] 88 % of control | [12] 100 % of control

c1ccc2ncccc2c1
inactive: [1] 100 % of control | [2] 100 % of control | [3] 96 % of control

CC(O)CCc1ccc(O)cc1 (centres undefined)
inactive: dose: 18.8 mg/kg/injection, schedule: Q01DX010 (ip), vehicle: saline 100 % of control | dose: 37.5 mg/kg/injection, schedule: Q01DX010 (ip), vehicle: saline 92 % of control | dose: 75.0 mg/kg/injection, schedule: Q01DX010 (ip), vehicle: saline 92 % of control | dose: 150.0 mg/kg/injection, schedule: Q01DX010 (ip), vehicle: saline 100 % of control

CC[C@]12C=CCN3CC[C@@]4(c5ccc(OC)cc5N(C)[C@H]4[C@@](O)(C(=O)OC)[C@@H]1O)[C@@H]32
inactive: dose: 3.75 mg/kg/injection, schedule: Q01DX010 (ip), vehicle: saline 93 % of control | dose: 7.5 mg/kg/injection, schedule: Q01DX010 (ip), vehicle: saline 100 % of control | dose: 15.0 mg/kg/injection, schedule: Q01DX010 (ip), vehicle: saline 93 % of control | dose: 30.0 mg/kg/injection, schedule: Q01DX010 (ip), vehicle: saline 100 % of control | [2] 96 % of control | [3] 92 % of control

C[C@]12C[C@H](O)[C@H]3[C@@H](CCC4=CC(=O)CC[C@@]43C)[C@@H]1CC[C@@H]2C(=O)CO
inactive: dose: 12.5 mg/kg/injection, schedule: Q01DX010 (sc), vehicle: steriod suspending solution 107 % of control | dose: 25.0 mg/kg/injection, schedule: Q01DX010 (sc), vehicle: steriod suspending solution 107 % of control | dose: 50.0 mg/kg/injection, schedule: Q01DX010 (sc), vehicle: steriod suspending solution 107 % of control | dose: 100.0 mg/kg/injection, schedule: Q01DX010 (sc), vehicle: steriod suspending solution 107 % of control

CC(=O)NCCCCCCNC(C)=O
inactive: [2] 93 % of control | [3] 96 % of control | [4] 96 % of control | [12] 100 % of control

CC(=O)NC1=C(N2CC2)C(=O)C(NC(C)=O)=C(N2CC2)C1=O
inactive: dose: 31.3 micrograms/kg/injection, schedule: Q01DX010 (ip), vehicle: saline 107 % of control | dose: 62.5 micrograms/kg/injection, schedule: Q01DX010 (ip), vehicle: saline 110 % of control

Cn1c(N)nc2nc[nH]c2c1=S
inactive: dose: 10.0 mg/kg/injection, schedule: Q01DX010 (ip), vehicle: saline 100 % of control | dose: 20.0 mg/kg/injection, schedule: Q01DX010 (ip), vehicle: saline 100 % of control | dose: 40.0 mg/kg/injection, schedule: Q01DX010 (ip), vehicle: saline 96 % of control | [13] 110 % of control

O=C(Nc1ccc(C2=NCCN2)cc1)c1ccc(C(=O)Nc2ccc(C3=NCCN3)cc2)cc1
inactive: dose: 8.0 mg/kg/injection, schedule: Q01DX010 (ip), vehicle: saline 104 % of control | dose: 16.0 mg/kg/injection, schedule: Q01DX010 (ip), vehicle: saline 100 % of control | dose: 32.0 mg/kg/injection, schedule: Q01DX010 (ip), vehicle: saline 104 % of control and 100 % of control | dose: 64.0 mg/kg/injection, schedule: Q01DX010 (ip), vehicle: saline 104 % of control and 100 % of control
